How the values were obtained:
Type in all cases: in vivo, C57BL/6 mice
[1] = system: inflammatory cytokines (IL-1β, IL-6, IL-17A, IL-17F, and IL-22); test: Expression levels of inflammatory cytokines in dorsal skin by quantitative PCR (Example 2); conditions: mRNA, Day 5, 5 mg/kg/day i.v. for three days, vs control group
Protocol: (§1) The drugs were prepared and the psoriasis model mice were produced in the same way as Example 1. The peptides were administered in the same way as Example 1 except that the number of mice was changed to six in both the HMGB1 peptide (1-44) administration group and the control group.
(§2) On the 5th day from the start of imiquimod application, the dorsal skin of the mice was collected, mRNA was extracted from the skin, and the expression levels of the inflammatory cytokines (IL-1β, IL-6, IL-17A, IL-17F, and IL-22), which are known to be involved in the pathogenesis of psoriasis, were analyzed by quantitative PCR.

psoriasis model mice [2] = test: PASI score in imiquimod-induced psoriasis model mice (Example 2); conditions: 5 mg/kg/day i.v. for three days, up to Day 4, vs control group (saline), n=6
Protocol: as §1
The degree of the symptoms of psoriasis on the dorsal skin of the mice was evaluated by the PASI score for four days from the 1st day of the start of imiquimod application. The PASI score was calculated in the same manner as Example 1.

psoriasis model mice [3] = test: PASI score in imiquimod-induced psoriasis model mice (Example 1)
From the text: (§3) In order to induce psoriasis using imiquimod, a cream containing 5% imiquimod (Beselna Cream 5%, manufactured by Mochida Pharmaceutical Co., Ltd.) was used. Imiquimod is represented as IMQ in the drawings corresponding to the Examples of this application. A peptide consisting of amino acid residues 1-44 of the human-derived HMGB1 protein (SEQ ID NO: 1) was chemically synthesized by a solid-phase method. Hereinafter, the HMGB1 fragment peptide is referred to as the HMGB1 peptide (1-44) and is expressed as an abbreviation “1-44” in the drawings corresponding to the Examples.
(§4) C57BL/6 mice (7-week-old, female, body weight about 20 g) were prepared, and the hair on the back was removed. In order to induce psoriasis, the cream containing 5% imiquimod was applied to the dorsal skin of the mice at a dose of 1.25 g/animal/day (62.5 mg/animal/day as imiquimod) once a day for four days. In the following, the day when imiquimod was first applied is represented as “the 1st day of the start of imiquimod application (Day 1)”, and the next day onward is represented as “the Xth day from the start of imiquimod application (Day X)”. That is, the last day that imiquimod was applied was the 4th day from the start of imiquimod application (Day 4), and no application was performed on the 5th day from the start of imiquimod application (Day 5).
The psoriasis model mice produced as described above were divided into the HMGB1 peptide (1-44) administration group (n=3) and the control group (n=3). The test substance was administered by injecting an HMGB1 peptide (1-44) solution, which has been adjusted to a concentration of 1 μg/μl with saline as the vehicle, into the vein at a dose of 100 μl/day (5 mg/kg/day as the peptide dose) for three days from the 1st day of the start of imiquimod application (Day 1). […]
The degree of the symptoms of psoriasis on the dorsal skin of the mice was evaluated by the PASI score for five days from the 1st day of the start of imiquimod application. The PASI score was calculated by quantifying the degree of each of (a) erythema, (b) scaling (desquamation), and (c) thickening (infiltration) of skin using five stages, [no symptoms: 0 points, mild: 1 point, moderate: 2 points, severe: 3 points, and extremely severe: 4 points], and summing up the values of (a), (b), and (c) (minimum 0 points-maximum 12 points).
(a) The erythema score was determined by using the photographs of the back of mice shown in FIG. 1 as a criterion for each score and visually comparing them with the condition of the back of the mice to be evaluated. (b) The scaling score was determined by using the photographs of the back of mice shown in FIG. 2 as a criterion for each score and visually comparing them with the condition of the back of the mice to be evaluated. (c) The thickening score was determined as follows: Two measurement sites were determined on the back of the mice, the skin was pinched and its thickness was measured with a caliper, and the average value from the two sites was recorded daily as the skin thickness (mm). Quantification was carried out by giving 0 points when the value of skin thickness of each day relative to the skin thickness on the 1st day of the start of imiquimod application (before application) was less than 1.1, 1 point when the value was 1.1 or more to less than 1.3, 2 points when the value was 1.3 or more to less than 1.5, 3 points when the value was 1.5 or more to less than 1.7, and 4 points when the value was 1.7 or more.

[4] = system: inflammatory cytokines (IL-6, IL-17F, and IL-22); test: Expression levels of inflammatory cytokines in dorsal skin by quantitative PCR (Example 1); conditions: mRNA, Day 5, 5 mg/kg/day i.v. for three days, vs control group
From the text: as §3, §4
The psoriasis model mice produced as described above were divided into the HMGB1 peptide (1-44) administration group (n=3) and the control group (n=3). […]
as §2, with “application (Day 5),” for “application,”, “(IL-6,” for “(IL-1β, IL-6, IL-17A,”

[5] = 5 mg/kg/day i.v. for three days, up to Day 5, vs control group

## HMGB1 peptide (1-44): peptide consisting of amino acid residues 1-44 of the human-derived HMGB1 protein (SEQ ID NO: 1), chemically synthesized by a solid-phase method (MGKGDPKKPRGKMSSYAFFVQTCREEHKKKHPDASVNFSEFSKK)
[1]
  expression level of IL-1β in the skin: lower than those in the control group
  expression level of IL-6 in the skin: lower than those in the control group
  expression level of IL-17A in the skin: lower than those in the control group
  expression level of IL-17F in the skin: lower than those in the control group
  expression level of IL-22 in the skin: lower than those in the control group
Psoriasis model mice [2]
  PASI score: lower than that in the control group
Psoriasis model mice [3]; 5 mg/kg/day i.v. for three days from Day 1, up to Day 5, vs control group (saline), n=3
  PASI score: lower than those in the control group
Psoriasis model mice [3]; 5 mg/kg/day i.v. for three days, Day 5, vs control group (saline), p<0.05, 5 mg/kg/day
  PASI score on the 5th day from the start of imiquimod application: significantly lower than that in the control group
Psoriasis model mice [3]; [5]
  erythema score: lower than those in the control group
  scaling score: lower than those in the control group
  thickening score: lower than those in the control group
[4]
  expression level of IL-6 in the skin: lower than those in the control group
  expression level of IL-17F in the skin: lower than those in the control group
  expression level of IL-22 in the skin: lower than those in the control group
